Measurements from BindingDB's records for doi:10.1021/acs.jmedchem.9b00568 (University of Central Florida, 2020).

Assay: Induction of LAT1-mediated polyamine efflux in human L3.6PL cells assessed as reduction in cell viability after 48 hrs by MTS assay

Which IC50 does the source give for `CC(C)CCN1CCN([C@@H](CNCc2ccccc2)CC2CCCCC2)C[C@@H]1CC(C)C` here?
Its IC50 is 3.48 µM.
